Test results as given in ChEMBL document CHEMBL3507680, “University of Dundee, Gates Library screen for HepG2 cell viability”.

Assay: Human HepG2 cell viability assay in 384 well format
Type: toxicity, cell-based
Design: dose 125 nL, time 70.5 hour; cytotoxicity at 70.5 h: concentration not given beside the values
Settings: HepG2 cells, read-out: Inhibition

| Compound | cytotoxicity at 70.5 h |
| --- | --- |
| O=C([C@H]1CCCO1)N1CCN(Cc2cccnc2)c2ncccc2C1 | 0.581% |
| Cc1ccc(N2CCCc3sc(C(=O)NCC4CCCO4)nc32)nn1 (stereo not drawn) | -8.45% |
| Cc1ccc2c(n1)N(Cc1cccnc1)CCN(C(=O)C1CC=CC1)C2 | -9.79% |
| CNC(=O)[C@H]1C[C@@H]2CN(C(=O)c3ccsc3)C[C@@H]2N1S(C)(=O)=O | -10.8% |
| CN(Cc1cccnc1)[C@@H]1CN(c2ncc(F)cn2)[C@@H]2CCCO[C@H]12 | -11.8% |
| O=C(NCC1CCCO1)c1nc2c(s1)CCCN2C(=O)C1CC1 (stereo not drawn) | -9.75% |
| O=C(NCC1CCCO1)c1nc2c(s1)CCCN2CC1CC1 (stereo not drawn) | -2.36% |
| COCC(=O)N1CCn2c(Cn3cncn3)cnc2C1C (stereo not drawn) | -6.96% |
| N#Cc1ccc(OC[C@]23COC[C@H]2CN(c2ncccn2)C3)nc1 | -7.98% |
| COCCNC(=O)C1CN(C(N)=O)Cc2ccnn2C1 (stereo not drawn) | -8.89% |
| c1ccc(COC[C@]23COC[C@H]2CN(c2ncccn2)C3)nc1 | -11.9% |
| CS(=O)(=O)N[C@@H]1COC[C@@H]2CN(Cc3ccco3)C[C@@H]21 | -16.3% |
| CS(=O)(=O)N1CC[C@]2(C[C@@H](OCC3CCC3)CO2)C1 | -12.4% |
| Cn1cc(-c2ncnc3c2CCN(C(=O)N2CCOCC2)CC3)cn1 | -5.18% |
| O=C(c1ccc(Cl)cc1)N1CCCn2nnc(Cn3cccn3)c2C1 | 1.05% |
| Cc1nccc([C@H]2C[C@@H]3CCN(S(=O)(=O)N(C)C)C[C@H]3O2)n1 | -10.6% |
| O=C(N1CCOCC1)N1CCc2ncnc(NC3CC3)c2CC1 | 21% |
| O=C(NCc1ccccc1)N1CCC2(CC(=O)N(c3ccsc3)C2)C1 (stereo not drawn) | -2.89% |
| COCC1CC2(CCN(C(=O)c3cccn3C)CC2)CN1C(C)C (stereo not drawn) | -0.557% |
| Cc1cccc(COC[C@]23COC[C@H]2CN(C(=O)c2ccsc2)C3)n1 | 2.91% |
| CC(=O)N1CC(=O)N(c2cnn(C)c2)CC12CCN(Cc1ccoc1)C2 (stereo not drawn) | 1.31% |
| Cc1ccc2nc(C3CCN(CCO)CC3)nn2c1 | 21.1% |
| Cn1cc(C2CC(=O)NC23CCN(c2ncc(F)cn2)CC3)cn1 (stereo not drawn) | 25.2% |
| Cc1cccc(C(=O)N2C[C@@H]3OCCN(C(C)C)[C@@H]3C2)n1 | -0.427% |
| CNC(=O)[C@H]1C[C@@H]2CN(C(=O)c3ccco3)C[C@@H]2N1S(C)(=O)=O | -7.68% |
| Cc1ncnc2c1CCN(c1cc(C(F)(F)F)ncn1)CC2 | -17.8% |

| Compound | cytotoxicity at 70.5 h |
| --- | --- |
| CS(=O)(=O)N1CC[C@H]2C[C@@H](C(=O)N3CCOCC3)O[C@@H]2C1 | 2.65% |
| O=C(NCc1ccco1)[C@H]1C[C@H]2OCC[C@H]2N(S(=O)(=O)C2CC2)C1 | -12.2% |
| CCc1cnc(N2C[C@H]3C[C@H](C(=O)N(C)C)[C@@H](C2)O3)nc1 | -7.47% |
| CCNC(=O)N1CCC2(C1)c1ccccc1S(=O)(=O)N2CCC(C)C (stereo not drawn) | -12.9% |
| CN(C)C(=O)[C@H]1C[C@@H]2CCN(C3CCOCC3)C[C@H]2O1 | -8.09% |
| COCCN1C(=O)[C@]2(CC[C@@H]3CN(C(=O)NCC(C)C)C[C@@H]32)N=C1C | -10% |
| CS(=O)(=O)NCc1n[nH]c2c1CCN(C(=O)c1ccsc1)C2 | 30.1% |
| CNC(=O)C1CN(C(C)C)CCN1c1ncccn1 (stereo not drawn) | 2.44% |
| CCCn1nccc1-c1cnc(CC2CCN(C(C)=O)C2)cn1 (stereo not drawn) | -3.63% |
| Cc1csc(Nc2cc(C3CN(C(C)C)C3)nc(C)n2)n1 | -3.73% |
| CN(C)C(=O)C1CN(c2ncccn2)CCN1C (stereo not drawn) | -1.97% |
| COc1ccc(N2CCNC(C(N)=O)C2)cc1 (stereo not drawn) | 18.6% |
| O=C(CN1CCCCCC1)N1CCc2nnc(C3CCCNC3)n2CC1 (stereo not drawn) | 16% |
| Cn1ccc(C(=O)N2CCC(c3cc(CCO)n(C)n3)C2)n1 (stereo not drawn) | -5.56% |
| Cc1cc(C)nc(N(C)CCn2ccnc2C)n1 | -2.15% |
| CNc1ncccc1CN1CCN(C)CC(C(N)=O)C1 (stereo not drawn) | 25.3% |
| Cc1cc(N2CCN(C(=O)[C@@H]3C[C@@H]4C=C[C@H]3C4)CC2)nc2ccccc12 | -4.89% |
| Cc1nccc(N2CCN(C3CCOCC3)CC(C(=O)N(C)C)C2)n1 (stereo not drawn) | -13.5% |
| Cc1cc(Cc2ccc(F)cc2)cc(C2CCCNC2)n1 (stereo not drawn) | 16.9% |
| Cn1cc(CN2CCCCC2c2ccc(-c3cccc(Cl)c3)nc2)cn1 (stereo not drawn) | -4.26% |
| Cc1ncsc1C(=O)N1CCC(c2ccc3c(NC(C)C)n[nH]c3n2)C1 (stereo not drawn) | -15.9% |
| Cc1cc(N2CCN(C3CCOCC3)CC(C(=O)N(C)C)C2)ncn1 (stereo not drawn) | -6.48% |
| CNC(=O)C1CN(C(C)C)CCN1c1nc(C)cc(C)n1 (stereo not drawn) | -10.7% |
| CNC(=O)C1CN(c2ccc(F)cc2)CCN1 (stereo not drawn) | -1.89% |
| CN(Cc1ccco1)Cc1cncc2c1CCN(S(C)(=O)=O)C2 | -8.46% |
| CC(C)CN1CCc2c(CN(C)Cc3ccco3)cncc2C1 | 4.58% |

| Compound | cytotoxicity at 70.5 h |
| --- | --- |
| CNC(=O)[C@@H]1C[C@H]2CN(C(=O)c3ccco3)C[C@H]2N1C(C)C | -10.2% |
| CNC(=O)[C@H]1C[C@@H]2CN(C(=O)c3cccnc3)C[C@@H]2N1S(C)(=O)=O | -11.1% |
| CNC(=O)[C@H]1C[C@@H]2CN(C(=O)c3ccccn3)C[C@@H]2N1S(C)(=O)=O | -7.73% |
| O=C(N1CCCO1)[C@@]12CCO[C@@H]1CCN(Cc1ccc(F)cc1)C2 | -1.1% |
| CC1c2ncc(CNC(=O)C3CC3)n2CCN1Cc1ccsc1 (stereo not drawn) | -1.59% |
| Cc1ccc(CN2C[C@@H]3COC[C@H](NS(C)(=O)=O)[C@@H]3C2)s1 | -10.6% |
| O=C(c1n[nH]c2c1CCN(Cc1nccs1)C2)N1CCCC1 | -7.39% |
| CC(=O)N1CC(=O)N(c2cnn(C)c2)CC12CCN(CC1CC1)C2 (stereo not drawn) | 1.31% |
| COCCN1C[C@H]2CC[C@@]3(N=C(C)N(CC4CC4)C3=O)[C@H]2C1 | -2.1% |
| CC(C)CNC(=O)[C@H]1CCS(=O)(=O)[C@@H]2CN(Cc3ccc(Cl)cc3)C[C@H]12 | 3.8% |
| COCC1CC2(CCN(C(=O)c3cc(C)oc3C)CC2)CN1C(C)C (stereo not drawn) | 0.799% |
| COCC1Cn2nnc(-c3cnn(C)c3)c2CN1Cc1ccco1 (stereo not drawn) | 5.04% |
| O=C(NC1CCC1)[C@@H]1CCO[C@@H]2CCN(CCc3ccccc3)C[C@H]21 | -3.26% |
| Cc1cccc(NC(=O)N2CCCn3cnc(CN4CCCC4)c3C2)c1 | -1.43% |
| c1cnc(NC[C@@H]2CCC[C@@H]3CN(Cc4cc[nH]n4)C[C@@H]32)nc1 | -5.11% |
| Cc1cnc2n1CCN(C)C21CCN(C(=O)CC(C)C)CC1 | 3.32% |
| CCN1CCC2(CC1)CC(NC(=O)NC)c1cc(C)ccc12 (stereo not drawn) | -6.74% |
| COCC(=O)N1CCC[C@]2(C(=O)N(C)C)CN(c3ccccn3)C[C@@H]2C1 | -5.67% |
| CCS(=O)(=O)N1CCC[C@]2(C(=O)N(C)C)CN(c3ccccn3)C[C@@H]2C1 | -0.152% |
| CN(Cc1ccccc1)C1COC2(CCN(Cc3nccs3)CC2)C1 (stereo not drawn) | 10% |
| CO[C@H]1CCN(S(=O)(=O)c2cn(C)cn2)[C@H]1Cc1cnn(C)c1 | -14.3% |
| O=C([C@H]1C[C@@H]2CCN(C3CCOCC3)C[C@@H]2O1)N1CCOCC1 | -5.58% |
| CN1CCN(C(=O)[C@H]2C[C@@H]3CCN(c4ncc(F)cn4)C[C@@H]3O2)CC1 | -13.1% |
| COCCN1C[C@@H](C)[C@@]2(COCCN(C(=O)Cc3ccccc3)C2)C1 | -23% |
| Cc1nc(N2CCCC2)nc2c1CN(C(C)C)CC2 | -12.7% |
| COc1ccc(CN2CCc3ncnc(OC(C)C)c3CC2)cc1 | 43.9% |

| Compound | cytotoxicity at 70.5 h |
| --- | --- |
| Cc1ccc(CN2CCc3ncnc(C4CC4)c3CC2)s1 | 33.9% |
| O=C(N1CCCO1)[C@@]12CCO[C@@H]1CCN(Cc1ccccn1)C2 | 2.18% |
| O=C(c1ccnnc1)N1CCN(Cc2cccnc2)c2ncccc2C1 | -8.62% |
| Cc1nc(CN2C(=O)CCC23CCN(Cc2ccoc2)CC3)cs1 | -4.67% |
| CN(C)CCOCc1nnc2n1CCN(Cc1cccs1)CC2 | 1.78% |
| COc1cc(N2C[C@@H]3COC[C@]3(COc3ccccn3)C2)ncn1 | -11.5% |
| Cc1cccc(CN2C[C@@H]3COC[C@H](NS(C)(=O)=O)[C@@H]3C2)n1 | -15.5% |
| O=C(NCC1CC1)C1CN(c2ncccn2)Cc2ccnn2C1 (stereo not drawn) | -14.5% |
| O=S1(=O)CCN(Cc2cccnc2)[C@H]2CCN(c3ncccn3)CC[C@H]21 | 19.6% |
| c1cncc(C2COC3(CCN(CC4CC4)CC3)C2)c1 (stereo not drawn) | -0.218% |
| CN(C)CC(=O)N1CCOC2(CCCN(c3ncccc3F)C2)C1 (stereo not drawn) | 4.23% |
| CN1CC(=O)N(c2cccnc2)CC12CCN(C(=O)c1cccnc1)C2 (stereo not drawn) | 2.34% |
| CCN1CCn2c(C)cnc2C12CCN(C(=O)CC(C)C)CC2 | -2.3% |
| Cn1cc(N2C(=O)CC[C@@H]3[C@H]2CCN3Cc2ccncc2)cn1 | 6.03% |
| Cc1cnc(N2CCCC3(CCN(Cc4csc(C)n4)C3=O)C2)nc1 (stereo not drawn) | 3.6% |
| O=C(c1ccsc1)N1CCOC2(CCN(Cc3cccnc3)CC2)C1 | -1.16% |
| CN(Cc1cn2c(n1)CN(C1CCOC1)CC2)Cc1ccco1 (stereo not drawn) | -8.22% |
| O=C(NCC1CC1)[C@H]1C[C@@H]2[C@@H](C1)OCCN2Cc1cccnc1 | 25% |
| CNC(=O)CN1CCOCC2(CCCN(Cc3cccnc3)C2)C1 (stereo not drawn) | 4.24% |
| CN1CCN(C[C@@H]2OC[C@H]3CN(Cc4ccsc4)CC[C@H]32)CC1 | -4.59% |
| CC1c2ncc(CN3CCN(C)CC3)n2CCN1CC1CC1 (stereo not drawn) | -11.9% |
| CN(Cc1cccnc1)[C@@H]1CN(Cc2cnn(C)c2)[C@@H]2CCCO[C@H]12 | -6.78% |
| CN(Cc1cccnc1)[C@@H]1CN(Cc2nccn2C)[C@@H]2CCCO[C@H]12 | -4.78% |
| CC1c2ncc(CN3CCN(C)CC3)n2CCN1Cc1cccnc1 (stereo not drawn) | -15.8% |
| Cc1c[nH]c(C2CCCN(Cc3ccccc3C(=O)O)C2)n1 (stereo not drawn) | 18.7% |
